Series [1] relates to Pioneer 39K40 hybrid maize. Kind of series: Test B: visual plant response rating, postemergence herbicides with Compound 1 rate series. It counts as in vivo, Zea mays L. spp. indentata Sturt. The note with it: in vivo. On the procedure: (§1) For all of the following biological tests, plant response ratings were based on a 0-100 scale where zero is growth equivalent to that of untreated plants (no plant response) and 100 represents no additional growth occurring after herbicide treatment.
Herbicide mixtures were dissolved/dispersed in a non-phytotoxic liquid carrier and were sprayed postemergence to Pioneer 39K40 hybrid maize (Zea mays L. spp. indentata Sturt.) in the third collar growth stage (extended leaf height was 50-60 cm). Treated plants were grown under greenhouse conditions for two weeks before visual evaluations of plant responses were recorded.

Series [2] has as its system Pioneer 39K40 hybrid maize. Kind of series: Test A: visual plant response rating, postemergence herbicide treatments alone and with Compound 1. Type of series: in vivo, Zea mays L. spp. indentata Sturt. Particulars: in vivo. On the procedure: as §1
Pioneer 39K40 hybrid maize used in this test (and also Tests B and C) is particularly sensitive to herbicides that inhibit the acetohydroxy acid synthase enzyme. Herbicide mixtures were dissolved/dispersed in a non-phytotoxic liquid carrier and were sprayed postemergence to Pioneer 39K40 hybrid maize (Zea mays L. spp. indentata Sturt.) in the third collar growth stage (extended leaf height was 50-60 cm). Treated plants were grown under greenhouse conditions for two weeks before visual evaluations of plant responses were recorded.

The next series has as its system palisade grass. Kind of series: Test K: pasture grass postemergence plant response rating, field conditions. Type of series: in vivo, Brachiaria brizantha (Hochst. ex A. Rich) Stapf. The note with it: Palisade grass, postemergence, field, four weeks, 0-100 scale.
From the text: as §1
(§2) Herbicide mixtures were formulated, dissolved/dispersed in water containing 0.25% non-ionic surfactant, and sprayed postemergence to the pasture grasses: Surinam grass (Brachiaria decumbens Stapf), palisade grass (Brachiaria brizantha (Hochst. ex A. Rich) Stapf) and Alexandergrass (Brachiaria plantaginea (Link) A. S. Hitchc.) approximately 10-30 cm tall (extended leaf height). This test was conducted under field conditions. Visual evaluations of plant responses were recorded four weeks after the plants were treated.

For series [3], the system named is sunflower variety Pioneer 63N82 bred for resistance to tribenuron-methyl. Kind of series: Test H: tribenuron-tolerant sunflower postemergence plant response rating. It counts as in vivo, Helianthus annuus L. var. Pioneer 63N82. The note with it: 2-leaf stage, greenhouse, two weeks, 0-100 scale.
From the text: as §1
Herbicide mixtures were formulated, dissolved/dispersed in water containing 0.25% non-ionic surfactant, and sprayed postemergence at the 2-leaf growth stage to a sunflower variety (Helianthus annuus L. var. Pioneer 63N82) bred for resistance to tribenuron-methyl. Treated plants were grown under greenhouse conditions for two weeks before visual evaluations of plant responses were recorded.

A further series relates to Surinam grass. Kind of series: Test K: pasture grass postemergence plant response rating, field conditions. Type of series: in vivo, Brachiaria decumbens Stapf. Particulars: Surinam grass, postemergence, field, four weeks, 0-100 scale.
From the text: as §1, §2

Another series relates to Alexandergrass. The series is described as above. It counts as in vivo, Brachiaria plantaginea (Link) A. S. Hitchc. The note with it: Alexandergrass, postemergence, field, four weeks, 0-100 scale.
From the text: as §1, §2

The subject of a further series is sugarcane. Kind of series: Test J: sugarcane postemergence plant response rating, field conditions. Type of series: in vivo, Saccharum officinarum L. The note with it: postemergence, field, four weeks, 0-100 scale. The method, then: as §1
Herbicide mixtures were formulated, dissolved/dispersed in water containing 0.25% non-ionic surfactant, and sprayed postemergence to sugarcane (Saccharum officinarum L.) approximately 20-40 cm tall (extended leaf height). This test was conducted under field conditions. Visual evaluations of plant responses were recorded four weeks after the plants were treated.

For series [4], the system named is Pioneer 39K40 hybrid maize. Kind of series: Test C: visual plant response rating, postemergence acetohydroxy acid synthase-inhibiting herbicides alone and with Compound 1. It counts as in vivo, Zea mays L. spp. indentata Sturt. Particulars: greenhouse, two weeks, 0-100 scale. On the procedure: as §1
Herbicide mixtures were dissolved/dispersed in a non-phytotoxic liquid carrier and were sprayed postemergence to Pioneer 39K40 hybrid maize (Zea mays L. spp. indentata Sturt.) in the third collar growth stage (extended leaf height was 40-60 cm). Treated plants were grown under greenhouse conditions for two weeks before visual evaluations of plant responses were recorded.

For the next series, the system named is velvetleaf. Kind of series: Test I: postemergence plant response rating. It counts as in vivo, Abutilon theophrasti Medik. Particulars: velvetleaf, postemergence, greenhouse, two weeks, 0-100 scale.
From the text: as §1
(§3) Herbicide mixtures were formulated, dissolved/dispersed in water containing 0.25% non-ionic surfactant, and sprayed postemergence to the crop: soybean (Glycine max (L.) Merr.) at the 2-leaf growth stage and to weeds: lambsquarters (Chenopodium album L.) and velvetleaf (Abutilon theophrasti Medik.). Weed species were 5-10 cm tall when treated. Treated plants were grown under greenhouse conditions for two weeks before visual evaluations of plant responses were recorded.

In a further series the test system is lambsquarters. Kind of series: Test I: postemergence plant response rating. It counts as in vivo, Chenopodium album L. The note with it: lambsquarters, postemergence, greenhouse, two weeks, 0-100 scale.
From the text: as §1, §3

[5] abbreviates: herbicide 30 g ai/ha + Compound 1 70 g ai/ha.
Setting [6] is: herbicide 30 g ai/ha + Compound 1 140 g ai/ha.
[7] abbreviates: herbicide 4 g ai/ha + Compound 1 125 g ai/ha.
Where [8] appears, read: herbicide 8 g ai/ha + Compound 1 125 g ai/ha.

Consider `CCS(=O)(=O)c1cccnc1S(=O)(=O)NC(=O)Nc1nc(OC)cc(OC)n1` [Rimsulfuron, rimsulfuron], for which the “Observed Response, Herbicide alone” value in [1] is 62; in series [2] it was 92.
On to `COC(=O)c1ccccc1S(=O)(=O)NC(=O)Nc1nc(C)cc(C)n1` [Sulfometuron-methyl, sulfometuron-methyl], for which the “Observed Response, Herbicide mixture with Compound 1” value (“Observed Response, Herbicide mixture” below) was found to be 40 with palisade grass (setting [5]); 20 in the series on palisade grass (setting [6]); 7 in series [3] (setting [7]); 3 in series [3] (setting [8]); 3 in [3] (herbicide 16 g ai/ha + Compound 1 125 g ai/ha); 7 in series [3] (herbicide 31 g ai/ha + Compound 1 125 g ai/ha). The “Observed Response, Herbicide mixture” value in series [3] (herbicide 62 g ai/ha + Compound 1 125 g ai/ha) is given as 7; with Surinam grass (setting [5]), 45; with Surinam grass (setting [6]), 30; with Alexandergrass (setting [5]), 45; in the series on Alexandergrass (setting [6]), 30; in the series on sugarcane (setting [5]) it was 45. The figures for the “Observed Response, Herbicide mixture” value (in the series with sugarcane (setting [6]); in series [4] (setting [8])) were 30 and 100, respectively. The “Observed Response, Herbicide alone” value with palisade grass (herbicide 30 g ai/ha) is 45; in series [3] (herbicide 4 g ai/ha), 27; in series [3] (herbicide 8 g ai/ha), 30; in series [3] (herbicide 16 g ai/ha), 33; in [3] (herbicide 31 g ai/ha), 37; in series [3] (herbicide 62 g ai/ha), 40. The “Observed Response, Herbicide alone” value in the series with Surinam grass (herbicide 30 g ai/ha) was found to be 50; in the series with Alexandergrass (herbicide 30 g ai/ha), 50; with sugarcane (herbicide 30 g ai/ha), 60; in series [4] (herbicide 8 g ai/ha), 100.
On to `COC(=O)c1sccc1S(=O)(=O)NC(=O)Nc1nc(C)nc(OC)n1` [Thifensulfuron-methyl, thifensulfuron-methyl], for which the “Observed Response, Herbicide mixture” value is reported as 99 with velvetleaf (setting [7]), 100 with velvetleaf (setting [8]), 99 with lambsquarters (setting [7]) and 100 with lambsquarters (setting [8]). Further, the “Observed Response, Herbicide alone” value in the series on velvetleaf (herbicide 4 g ai/ha) amounted to 99; in the series on velvetleaf (herbicide 8 g ai/ha), 100; in series [1], 45; in series [2] it was 73; with lambsquarters (herbicide 4 g ai/ha), 98; with lambsquarters (herbicide 8 g ai/ha) it was 100.

The values are drawn from patent US20130005568A1, “SAFENED HERBICIDAL MIXTURES” (E.I. DU PONT DE NEMOURS AND COMPANY, priority 2011, published 2013).
